Laboratory results: the NIST ThermoML archive (doi:10.1016/j.jct.2018.07.026)
Numbers after ± are expanded uncertainties.

What was measured:
[1] = Crystal 1; DTA
[2] = Molar enthalpy of transition or fusion; conditions: Crystal 1; DSC
[3] = molar heat capacity at constant pressure; conditions: 78.8 kPa, Crystal, DSC

O=C(O)c1cccc([N+](=O)[O-])c1C(=O)O [3-nitro-1,2-benzenedicarboxylic acid]
Conditions	Molar enthalpy of transition or fusion [kcal/mol]	Normal melting temperature [°C]
[1]	–	223.2 ± 0.5
[2]	13.2 ± 0.311	–

[3]
Conditions	molar heat capacity at constant pressure [J/K/mol]
295.15 K	242.66 ± 11
296.15 K	244.28 ± 11
297.15 K	245.61 ± 11
298.15 K	246.53 ± 11
299.15 K	247.02 ± 11
300.15 K	248.36 ± 11
301.15 K	249.69 ± 11
302.15 K	250.75 ± 11
303.15 K	251.67 ± 11
304.15 K	252.72 ± 11
305.15 K	253.35 ± 11
306.15 K	253.99 ± 11
307.15 K	254.41 ± 11
308.15 K	254.83 ± 11
309.15 K	255.47 ± 11
310.15 K	256.8 ± 11
311.15 K	255.96 ± 11
312.15 K	257.22 ± 11
313.15 K	258 ± 11
314.15 K	258.77 ± 11
315.15 K	259.12 ± 11
316.15 K	260.18 ± 11
317.15 K	260.67 ± 11
318.15 K	261.31 ± 11
319.15 K	261.94 ± 11
320.15 K	262.71 ± 11
321.15 K	263.56 ± 11
322.15 K	264.19 ± 11
323.15 K	264.97 ± 11
324.15 K	265.67 ± 11
325.15 K	266.44 ± 11
326.15 K	266.94 ± 11
327.15 K	267.57 ± 11
328.15 K	268.41 ± 11
329.15 K	268.77 ± 11
330.15 K	269.4 ± 11
331.15 K	269.96 ± 11
332.15 K	270.6 ± 12
333.15 K	271.23 ± 11
334.15 K	271.79 ± 12
335.15 K	272.36 ± 12
336.15 K	273.27 ± 12
337.15 K	272.43 ± 12
338.15 K	273.83 ± 12
339.15 K	274.4 ± 12
340.15 K	275.03 ± 12
341.15 K	275.66 ± 12
342.15 K	276.44 ± 12
343.15 K	277.14 ± 12
344.15 K	277.63 ± 12
345.15 K	278.34 ± 12
346.15 K	278.97 ± 12
347.15 K	279.75 ± 12
348.15 K	280.38 ± 12
349.15 K	280.94 ± 12
350.15 K	281.5 ± 12
351.15 K	281.72 ± 12
352.15 K	282.07 ± 12
353.15 K	282.49 ± 12
354.15 K	282.91 ± 12
355.15 K	283.48 ± 12
356.15 K	284.11 ± 12
357.15 K	284.32 ± 12
358.15 K	285.02 ± 12
359.15 K	285.59 ± 12
360.15 K	286.22 ± 12
361.15 K	286.71 ± 12
362.15 K	287.21 ± 12
363.15 K	287.7 ± 12
364.15 K	288.12 ± 12
365.15 K	288.68 ± 12
366.15 K	289.32 ± 12
367.15 K	289.95 ± 12
368.15 K	290.3 ± 12
369.15 K	290.86 ± 12
370.15 K	291.29 ± 12
371.15 K	291.64 ± 12
372.15 K	292.06 ± 12
373.15 K	292.62 ± 12
374.15 K	293.26 ± 12
375.15 K	293.47 ± 12
376.15 K	294.1 ± 12
377.15 K	294.59 ± 12
378.15 K	295.23 ± 12
379.15 K	295.72 ± 12
380.15 K	296.07 ± 12
381.15 K	296.57 ± 12
382.15 K	296.99 ± 12
383.15 K	297.55 ± 12
384.15 K	297.9 ± 12
385.15 K	298.39 ± 12
386.15 K	298.68 ± 12
387.15 K	299.24 ± 12
388.15 K	299.73 ± 12
389.15 K	300.01 ± 12
390.15 K	300.86 ± 12
391.15 K	301.21 ± 12
392.15 K	301.49 ± 12
393.15 K	301.84 ± 12
394.15 K	302.2 ± 12
395.15 K	302.69 ± 12
396.15 K	303.25 ± 12
397.15 K	303.74 ± 12
398.15 K	304.45 ± 12
399.15 K	305.22 ± 13
400.15 K	305.71 ± 13
401.15 K	306.28 ± 13
402.15 K	306.84 ± 13
403.15 K	307.33 ± 13
404.15 K	307.68 ± 13
405.15 K	308.25 ± 13
406.15 K	308.74 ± 13
407.15 K	309.02 ± 13
408.15 K	309.73 ± 13
409.15 K	310.15 ± 13
410.15 K	310.64 ± 13
411.15 K	311.13 ± 13
412.15 K	311.56 ± 13
